Experimental data taken from patent US9499484B2, “Indole, indoline derivatives, compositions comprising them and uses thereof” (priority 2012, dated 2016).
Counter-ions that a name gives are not always drawn. Like-named read-outs stand apart in the source and are kept apart here.

Key:
AChE = target: T1, AChE (UniProt P23795); assay type: biochemical, human or bovine erythrocytes
T1 sequence (P23795 1-613): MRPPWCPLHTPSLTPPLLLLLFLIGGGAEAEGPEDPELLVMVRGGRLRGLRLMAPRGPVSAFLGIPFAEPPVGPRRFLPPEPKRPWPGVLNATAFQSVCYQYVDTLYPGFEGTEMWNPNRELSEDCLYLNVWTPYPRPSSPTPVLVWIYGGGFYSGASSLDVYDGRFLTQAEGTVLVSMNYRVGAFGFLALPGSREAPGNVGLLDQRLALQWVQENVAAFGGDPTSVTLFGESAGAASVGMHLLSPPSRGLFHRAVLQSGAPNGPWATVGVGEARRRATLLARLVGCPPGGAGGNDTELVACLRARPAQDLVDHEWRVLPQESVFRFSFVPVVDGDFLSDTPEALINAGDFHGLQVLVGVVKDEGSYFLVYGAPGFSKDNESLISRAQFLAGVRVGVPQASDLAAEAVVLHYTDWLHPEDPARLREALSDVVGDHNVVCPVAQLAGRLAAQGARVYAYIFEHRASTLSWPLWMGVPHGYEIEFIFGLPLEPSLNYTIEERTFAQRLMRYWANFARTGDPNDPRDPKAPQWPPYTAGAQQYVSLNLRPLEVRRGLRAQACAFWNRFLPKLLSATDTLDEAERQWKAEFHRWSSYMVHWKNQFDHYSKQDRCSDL
Procedure: (§1) B. Measurement of Acetylcholinesterase (AChE) and Butylcholinesterase (BuChE) Inhibition In Vitro
(§2) The enzyme was incubated at 37° C. with 6-10 concentrations of the compounds tested and samples were collected at 15, 30, 60 and 120 min Aliquots were transferred to an Elisa multiscan microplate reader (Labsystems) at 15-60 sec time intervals for the determination of residual AChE activity, with Ascent PC software. […] The % inhibition of AChE by each concentration was calculated by comparison with the activity of the enzyme in the absence of drug. […] BuChE-inhibitory activity was determined as described above using BuChE (Sigma Israel) with butylthiocholine iodide (BuTh) 0.075M as a substrate.

[1] = Radical scavenging, glucose oxidase/luminol luminescence; assay type: biochemical; conditions: concentration reducing luminescence/radical by 50%; mean ± SD, three independent experiments
Procedure: A. Measurement of Radical Scavenging
A mixture comprising glucose oxidase (GO), luminol, sodium selenite [IV] ([…]) and cobalt [II] (Co^+2) all in Hank's Balance Salt Solution (HBSS) was used (Ginsburg et al, 2004). The production of H2O2 produces a burst of luminescence within 30-60 sec, which lasts for 7-10 min. The luminescence involves oxidation of SEL+5 to it SEL+6 and also the generation of oxidants, which are catalyzed by Co^+2. This method mimics infection and inflammation conditions in which there is an accumulation of several oxidant species. This method provides a source of several radicals. Reduction in luminescence by the compounds is due to their ability to sequester radicals and was measured after addition of several concentrations of each compound. The concentration of each compound that reduced the luminescence by 50% was calculated.

Radical scavenging, Sin1 = assay type: biochemical; conditions: mean ± SD, three independent experiments
BuChE = target: T2, BuChE (UniProt P81908); assay type: biochemical, human or equine serum
T2 construct: 120 min incubation; BuChE IC50
Procedure: as §1, §2

[2] = test system: TNF-α, BV2 mouse microglial cells; assay: TNF-α reduction in LPS-stimulated BV2 microglia; assay type: cell-based; conditions: for Reduction in TNF-α levels, BV2 Microglia range: concentration range, None = no reduction up till 100 nM
Procedure: The BV2 mouse microglial cells were created by infecting primary mouse microglia with v-raf/v-myc oncogen-carrying retrovirus and donated by Dr. Sigal Fleisher—Berkovich (Ben-Gurion University of the Negev). The cells were cultured in RPMI 1640 containing 0.4 mM L-Glutamine, 10% FCS, 100 units/ml penicillin, 100 μg/ml streptomycin and maintained in a humidified incubator at 37° C. with 5% CO2. For measurement of the effect of compounds on the release of NO the cells were seeded in a density of 80,000 cells/ml and confluence of about 60%, and incubated with test compounds (in the absence of FCS) for […] All the medium was removed and fresh medium containing FCS and LPS (10 μg/ml) added and the cells maintained at 37° C. for 24 h. The release of NO into the medium was determined by measurement of nitrite levels using Griess reagent reaction. For measurement of protein levels of cytokines cells were seeded in a density of 80,000 and incubated with test compounds (in the absence of FCS) and then with LPS as described above. The medium was centrifuged and supernatants collected after 6 h for TNF-α (Biolegend) and after 20 h for IL-6 (Biolegend).

TNF-α, RAW 264.7 cells = assay: TNF-α reduction in LPS-stimulated RAW 264.7 macrophages; assay type: cell-based, mouse
[3] = test system: ChE (AChE, BuChE) in plasma, muscle, spleen, brain; conditions: after ip and or oral administration in mice
Procedure: E. Acetylcholinesterase (AChE) and Butylcholinesterase (BuChE) Inhibition Ex Vivo
Compounds of the invention or saline were administrated by intraperitoneal (ip) injection or gavage to groups of 6-7 male ICR or Balb C mice (5-6 weeks of age). The mice were sacrificed 15, 30, 60 or 120 min after drug administration and the brain (minus cerebellum), spleen, and muscle were rapidly removed, weighed and put on ice. Blood was also collected in heparinised tubes, centrifuged at 14000 rpm at room temperature for 4 mM to provide plasma. Phosphate buffer pH 7 was added to each tissue to produce concentrations of 1 mg/mL for brain and spleen and 8 mg/mL for muscle. The tissues were homogenised in cold phosphate buffer pH 7 containing 0.1% Triton and centrifuged at 14000 rpm. Aliquots of plasma and the supernatant of all tissues were incubated with AcTh or BuTh and DTNB in phosphate buffer pH 7 and the rate of development of the yellow colour was measured as described above. Enzyme activity was measured for each time and drug concentration and percent inhibition of the AChE or BuChE activity was calculated by comparison with that of control mice injected with saline. Results are represented as p moles acetylthiocholine or butythiocholine hydrolysed/min/gm tissue.

NO, RAW 264.7 cells = assay: NO reduction in LPS-stimulated RAW 264.7 macrophages; assay type: cell-based, mouse
[4] = Table 2, 120 min incubation, read-out: IC50 AChE 120′
[5] = Table 3, 120 min incubation, read-out: IC50 AChE 120 min
[6] = read-out: IC50 BuChE 120 min; Table 3; 120 min incubation
[7] = Mus musculus, RAW264.7, 6 h, read-out: Reduction in TNF-α levels, RAW Macrophages % peak reduction
[8] = concentration range; None = no reduction up till 100 nM
[9] = Mus musculus, RAW264.7, 24 h, read-out: Reduction in NO levels, RAW Macrophages % peak reduction

## CN(C)C(=O)Oc1cccc2c1CCN2C [AN-619, Dimethyl-carbamic acid 1-methyl-2,3-dihydro-1H-indol-4-yl ester]
AChE; [4]
  IC50: 3500 nM

## CN(C)C(=O)Oc1cccc2ccn(C)c12 [AN-621, Dimethyl-carbamic acid 1-methyl-1H-indol-7-yl ester]
AChE
  IC50: 330 nM
AChE; [4]
  IC50: 300 nM

## CCN(CC)C(=O)Oc1ccc2c(ccn2C)c1 [AN-622, Diethyl-carbamic acid 1-methyl-1H indol-5-yl ester]
AChE; read-out: IC50 AChE 120′
  IC50: > 500000 nM

## CCN(CC)C(=O)Oc1ccc2c(c1)CCN2C [AN-625, Diethyl-carbamic acid 1-methyl-2,3-dihydro-1H indol-5-yl ester]
AChE; read-out: IC50 AChE 120′
  IC50: 50000 nM

## CCN(C)C(=O)Oc1cccc2c1c(CCC(=O)OC)cn2C [AN-629, Methyl 3-(4-((ethyl(methyl)carbamoyl)oxy)-1-methyl-1H-indol-3-yl) propanoate]
AChE; [4]
  IC50: 180000 nM

## CCN(C)C(=O)Oc1ccc2c(c1)C(CCC(=O)OC)CN2 (stereo not shown) [AN-669, 3-(2-(Methoxycarbonyl)ethyl) indolin-5-yl ethylmethylcarbamate]
AChE; [4]
  IC50: 660000 nM

## CCN(C)C(=O)Oc1ccc2c(c1)NCC2CCC(=O)OC (stereo not shown) [AN-680, 3-(2-(Methoxycarbonyl)ethyl)-1-indoline-6-yl ethylmethylcarbamate hydrochloride]
[1]
  IC50: 1450 ± 50 nM
Radical scavenging, Sin1
  IC50: 2360 ± 50 nM
AChE; [5]
  IC50: 55200 nM
BuChE; [6]
  IC50: 3900 nM
[2]
  Reduction in TNF-α levels, BV2 Microglia range: None
TNF-α, RAW 264.7 cells; [7]
  Emax: 34.5 ± 1.6%

## COC(=O)CCC1CNc2cc(O)ccc21 (stereo not shown) [AN-682, Methyl 3-(6-hydroxyindolin-3-yl)propanoate hydrochloride]
[1]
  IC50: 1340 ± 10 nM
Radical scavenging, Sin1
  IC50: 2330 ± 80 nM
[2]
  Reduction in TNF-α levels, BV2 Microglia % peak reduction: 17.6 ± 1.3%
  Reduction in TNF-α levels, BV2 Microglia range: 10^−2-100 nM
TNF-α, RAW 264.7 cells; Mus musculus, RAW264.7, 6 h; read-out: Reduction in TNF-α levels, RAW Macrophages % peak reduction
  Emax: 55 ± 1.3%
TNF-α, RAW 264.7 cells; [8]
  Reduction in TNF-α levels, RAW Macrophages range: 10^−1-100 nM

## COC(=O)CCC1CN(C)c2cccc(OC(=O)N(C)c3ccc(OC)cc3)c21 (stereo not shown) [AN-820, 3-(2-(Methoxycarbonyl)ethyl)-1-methylindolin-4-yl 4-methoxyphenylmethyl carbamate hydrochloride]
[1]
  IC50: 15300 ± 10 nM
AChE; [5]
  IC50: 246000 nM
BuChE; [6]
  IC50: > 600000 nM

## CCN(C)C(=O)Oc1cccc2c1C(CCC(=O)OC)CN2 (stereo not shown) [AN-827, 3-(2-(Methoxycarbonyl)ethyl)indolin-4-yl ethylmethylcarbamate hydrochloride]
[1]
  IC50: 1460 ± 50 nM
Radical scavenging, Sin1
  IC50: 4550 ± 480 nM
BuChE; [6]
  IC50: 300 nM
[2]
  Reduction in TNF-α levels, BV2 Microglia % peak reduction: 38.5 ± 3.2%
  Reduction in TNF-α levels, BV2 Microglia range: 10^−1-100 nM
TNF-α, RAW 264.7 cells; [7]
  Emax: 30 ± 3%
TNF-α, RAW 264.7 cells; [8]
  Reduction in TNF-α levels, RAW Macrophages range: 10^−1-100 nM
[3]
  ChE inhibition in plasma, muscle, and spleen: inhibited ChE

## O=C(O)CCC1CNc2cc(O)ccc21 (stereo not shown) [AN-848, 3-(6-Hydroxyindolin-3-yl) propanoic acid hydrochloride]
[1]
  IC50: 2340 ± 20 nM
Radical scavenging, Sin1
  IC50: 3070 ± 660 nM

## CCN(C)C(=O)Oc1ccc2c(CCC(=O)OCOC(=O)C(C)(C)C)c[nH]c2c1 [AN-860, (3-(6-(Ethyl(methyl)carbamoyloxy)-1H-indol-3-yl)propanotloxy)methyl pivalate]
[3]
  ChE inhibition in plasma, muscle, and spleen: inhibited ChE

## CCOC(=O)CCC1CNc2cccc(OC(=O)N(C)CC)c21.O=C(O)CC(O)(CC(=O)O)C(=O)O (stereo not shown) [AN-871, Ethyl 3-(4-(ethyl(methyl)carbamoyloxy)indolinium citrate]
AChE; [5]
  IC50: 40200 nM
BuChE; [6]
  IC50: 560 nM

## CCN(C)C(=O)Oc1ccc2c(c1)NCC2CCC(=O)OC.O=C(O)CC(O)(CC(=O)O)C(=O)O (stereo not shown) [AN-878, 6-(Ethyl(methyl)carbamoyloxy)-3-(3-methoxy-3-oxopropyl)indolinium citrate]
[3]
  ChE inhibition in plasma, muscle, and spleen: inhibited ChE

## CCN(C)C(=O)Oc1cccc2[nH]cc(CCCN)c12 [AN-910, 3-(4-((Ethyl(methyl)carbamoyl)oxy)-1H-indol-3-yl)propan-1-aminium chloride]
BuChE; [6]
  IC50: 230 nM
NO, RAW 264.7 cells; [9]
  Emax: 29.3 ± 1.2%

## CCN(C)C(=O)Oc1ccc2c(CCCN)c[nH]c2c1.Cl [AN-911, 3-(6-((Ethyl(methyl)carbamoyl)oxy)-1H-indol-3-yl)propan-1-aminium chloride]
AChE; read-out: IC50 AChE 120 min
  IC50: 24000 nM
BuChE; [6]
  IC50: 100 nM
NO, RAW 264.7 cells; [9]
  Emax: 66.6 ± 1.9%
NO, RAW 264.7 cells; [8]
  Reduction in NO levels by at >20%, RAW Macrophages range: 10^−2-100 nM

## CCN(C)C(=O)Oc1cccc2c1CCN2CCC(=O)OC.Cl [AN-1243, Methyl 3-(4-((Ethyl(methyl)carbamoyl)oxy)indolin-1-yl)propanoate Hydrochloride]
[1]
  IC50: 300 ± 10 nM
Radical scavenging, Sin1
  IC50: 8490 ± 3 nM
BuChE; [6]
  IC50: 700 nM
[2]
  Reduction in TNF-α levels, BV2 Microglia % peak reduction: 18.6 ± 1.0%
  Reduction in TNF-α levels, BV2 Microglia range: 100 nM
TNF-α, RAW 264.7 cells; [7]
  Emax: 20.3 ± 5.4%

## CCN(C)C(=O)Oc1cccc2[nH]cc(CCN(C)C)c12 [AN-1252, 3-(2-(Dimethylamino)ethyl)-1H-indol-4-yl ethyl(methyl)carbamate hydrochloride]
BuChE; read-out: IC50 BuChE 120 min
  IC50: 110 nM
NO, RAW 264.7 cells; Mus musculus, RAW264.7, 24 h; read-out: Reduction in NO levels, RAW Macrophages % peak reduction
  Emax: 36.4 ± 1.8%

## CCCCN(C)C(=O)Oc1ccc2c(CCC(=O)OC)c[nH]c2c1 [compound 676, 3-(2-(Methoxycarbonyl)ethyl)-1H-indol-6-yl butylmethylcarbamate]
AChE; [4]
  IC50: 33000 nM

## COC(=O)CCc1c[nH]c2cc(OC(=O)N(C)c3ccc(OC)cc3)ccc12 [compound 683, Methyl 3-(6-((4-methoxyphenyl)(methyl)carbamoyloxy)-1H-indol-3-yl)propanoate]
AChE; [4]
  IC50: > 800000 nM

## CCN(C)C(=O)Oc1ccc2c(c1)N(CCC(=O)OC)CC2 [compound 1247, Methyl 3-(6-((Ethyl(methyl)carbamoyl)oxy)indolin-1-yl)propanoate hydrochloride]
[1]
  IC50: 220 ± 40 nM
Radical scavenging, Sin1
  IC50: 2180 ± 170 nM
BuChE; [6]
  IC50: 6800 nM

## Ethyl 3-(5- ((ethyl(methyl)carbamoyl) oxy)-1H- benzo[d]imidazol-1- yl)propanoate hydrochloride Ethyl 3-(6- ((ethyl(methyl)carbamoyl) oxy)-1H- benzo[d]imidazol-1- yl)propanoate hydrochloride [AN-1257]
BuChE; Table 3; 120 min incubation; read-out: IC50 BuChE 120 min
  IC50: 110 nM
NO, RAW 264.7 cells
  Reduction in NO levels, RAW Macrophages % peak reduction: 34.5 ± 1.2%
NO, RAW 264.7 cells; [8]
  Reduction in NO levels by at >20%, RAW Macrophages range: 10^−2-1000 nM
